The structures appear in SMILES notation. Bounds are passed on as bounds.

One test has as its system Klebsiella oxytoca Strain ID 300967. The test is described as follows: Antimicrobial susceptibility testing, broth microdilution (CLSI). The test is classed as cell-based. Conditions: Strain ID 300967 KLEOXY, Mueller-Hinton broth, read-out: minimum inhibition concentration (MIC). An excerpt:
(§1) Carbapenem-resistant Klebsiella and E. coli were identified by broth microdilution as described by CLSI from the BD ID/AST microbial bank (1). Wild-type (Ampicillin sensitive) E. coli ATCC 25922 (Strain ID 300960) was used through out the experiments as a negative control. Three strains previously determined to contain KPC-1, KPC-2, and KPC-3 (Strain ID 301916=KPC-1, 301917=KPC-2, 301918=KPC-3) were used as positive controls (4). […] ESBL positive strains were identified using the CLSI recommended broth microdilution assay (2). Prior to any processing or extraction, all strains were streaked out on Trypticase Soy Agar (TSA) plates containing 5% Sheep red blood cells (BD Diagnostic Systems, Sparks, Md.) and grown at 35° C. overnight.
(§2) Antimicrobial susceptibility testing was performed using Mueller-Hinton broth (BD Diagnostic Systems, Sparks, Md.) as described by CLSI (1). Antimicrobial powders were acquired from the following companies; Ampicillin (Amp) and Cefotaxime (CTX) (Sigma Chemical Co., St. Louis, Mo.), Ceftazidime (CAZ) (Eli Lilly, Indianapolis, Ind.), Clavulanic acid (Smith-Kline, King of Prussia, Pa.), Imipenem (IPM) (Merck & Co., Rahway, N.J.).
(§3) The BD ID/AST Microbial Bank was screened for carbapenem-resistant Klebsiella and E. coli with broth microdilution as described by CLSI (2). Klebsiella spp. and E. coli were chosen because they are the primary reservoir species for the plasmid-borne KPC gene.
(§4) ESBL positive strains were identified using the CLSI recommended broth microdilution assay (2). Briefly, this broth microdilution assay has a two-fold dilution scheme between a defined range of the antimicrobial agent. For example, where the defined range of the antimicrobial agent is […], the two-fold dilution between wells is represented by 0.25, 0.5, 1, 2, 4, 8, and 16 μg/ml. To identify ESBL positive strains, growth is evaluated in wells containing the antimicrobial agent of interest at these various two-fold dilutions across the defined range either alone or in combination with Clavulanic acid in order to determine the MIC for the antimicrobial agent alone or in combination with Clavulanic acid. […] A wild-type E. coli Strain ID 300960 was also screened and used as a negative control for all of the real-time assays.
As to `CC(C)(O/N=C(\C(=O)N[C@@H]1C(=O)N2C(C(=O)[O-])=C(C[n+]3ccccc3)CS[C@H]12)c1csc(N)n1)C(=O)O` [CAZ, Ceftazidime], the MIC is 128 µg/mL.

For another test, the system named is Klebsiella oxytoca Strain ID 303990. The test is described as above. The test is classed as cell-based. Conditions: Strain ID 303990 KLEOXY, Mueller-Hinton broth, read-out: minimum inhibition concentration (MIC).
Text: as §1, §2, §3, §4
In the case of `CC(C)(O/N=C(\C(=O)N[C@@H]1C(=O)N2C(C(=O)[O-])=C(C[n+]3ccccc3)CS[C@H]12)c1csc(N)n1)C(=O)O` [CAZ, Ceftazidime], the MIC was found to be 128 µg/mL.

For another test, the system named is Klebsiella pneumoniae Strain ID 300996. The test is described as above. The class given is cell-based. Conditions: Strain ID 300996 KLEPNEP, ESBL positive, Mueller-Hinton broth, read-out: minimum inhibition concentration (MIC).
Text: as §1, §2, §3, §4
On to `CC(C)(O/N=C(\C(=O)N[C@@H]1C(=O)N2C(C(=O)[O-])=C(C[n+]3ccccc3)CS[C@H]12)c1csc(N)n1)C(=O)O` [CAZ, Ceftazidime], for which the MIC was 4 µg/mL.

The test system of a further test is Klebsiella pneumoniae Strain ID 301008. Described as above. Conditions: Strain ID 301008 KLEPNEP, Mueller-Hinton broth, read-out: minimum inhibition concentration (MIC). The test is classed as cell-based.
Text: as §1, §2, §3, §4
Turning to `CC(C)(O/N=C(\C(=O)N[C@@H]1C(=O)N2C(C(=O)[O-])=C(C[n+]3ccccc3)CS[C@H]12)c1csc(N)n1)C(=O)O` [CAZ, Ceftazidime], the MIC is no more than 0.25 µg/mL.

A further test has as its system Klebsiella pneumoniae Strain ID 301891. The test is described as above. The test is classed as cell-based. The following applies: Strain ID 301891 KLEPNEP, Mueller-Hinton broth, read-out: minimum inhibition concentration (MIC).
Text: as §1, §2, §3, §4
As for `CC(C)(O/N=C(\C(=O)N[C@@H]1C(=O)N2C(C(=O)[O-])=C(C[n+]3ccccc3)CS[C@H]12)c1csc(N)n1)C(=O)O` [CAZ, Ceftazidime], the MIC came out at 16 µg/mL.

Another test relates to Klebsiella pneumoniae Strain ID 301898. The description is as above. The class given is cell-based. The following applies: Strain ID 301898 KLEPNEP, Mueller-Hinton broth, read-out: minimum inhibition concentration (MIC).
Text: as §1, §2, §3, §4
`CC(C)(O/N=C(\C(=O)N[C@@H]1C(=O)N2C(C(=O)[O-])=C(C[n+]3ccccc3)CS[C@H]12)c1csc(N)n1)C(=O)O` [CAZ, Ceftazidime]: the MIC was greater than 128 µg/mL.

For the next test, the system named is Klebsiella pneumoniae Strain ID 301899. Described as above. The test is classed as cell-based. Conditions: Strain ID 301899 KLEPNEP, Mueller-Hinton broth, read-out: minimum inhibition concentration (MIC).
Text: as §1, §2, §3, §4
Turning to `CC(C)(O/N=C(\C(=O)N[C@@H]1C(=O)N2C(C(=O)[O-])=C(C[n+]3ccccc3)CS[C@H]12)c1csc(N)n1)C(=O)O` [CAZ, Ceftazidime], the MIC was greater than 128 µg/mL.

The next test relates to Klebsiella pneumoniae Strain ID 301916 (KPC-1). The test is described as above. The class given is cell-based. Conditions: Strain ID 301916 KLEPNEP, KPC-1 positive control, Mueller-Hinton broth, read-out: minimum inhibition concentration (MIC).
Text: as §1, §2, §3, §4
In the case of `CC(C)(O/N=C(\C(=O)N[C@@H]1C(=O)N2C(C(=O)[O-])=C(C[n+]3ccccc3)CS[C@H]12)c1csc(N)n1)C(=O)O` [CAZ, Ceftazidime], the MIC was greater than 128 µg/mL.

The next test deals with Klebsiella pneumoniae Strain ID 301917 (KPC-2). The description is as above. The following applies: Strain ID 301917 KLEPNEP, KPC-2 positive control, ESBL positive, Mueller-Hinton broth, read-out: minimum inhibition concentration (MIC). The class given is cell-based.
Text: as §1, §2, §3, §4
`CC(C)(O/N=C(\C(=O)N[C@@H]1C(=O)N2C(C(=O)[O-])=C(C[n+]3ccccc3)CS[C@H]12)c1csc(N)n1)C(=O)O` [CAZ, Ceftazidime]: the MIC was found to be 4 µg/mL.

For the next test, the system named is Klebsiella pneumoniae Strain ID 301919. The description is as above. The class given is cell-based. Conditions: Strain ID 301919 KLEPNEP, ESBL positive, Mueller-Hinton broth, read-out: minimum inhibition concentration (MIC).
Text: as §1, §2, §3, §4
Turning to `CC(C)(O/N=C(\C(=O)N[C@@H]1C(=O)N2C(C(=O)[O-])=C(C[n+]3ccccc3)CS[C@H]12)c1csc(N)n1)C(=O)O` [CAZ, Ceftazidime], the MIC stood at 32 µg/mL.

For the next test, the system named is Klebsiella pneumoniae Strain ID 301920. The test is described as above. The class given is cell-based. Conditions: Strain ID 301920 KLEPNEP, ESBL positive, Mueller-Hinton broth, read-out: minimum inhibition concentration (MIC).
Text: as §1, §2, §3, §4
As for `CC(C)(O/N=C(\C(=O)N[C@@H]1C(=O)N2C(C(=O)[O-])=C(C[n+]3ccccc3)CS[C@H]12)c1csc(N)n1)C(=O)O` [CAZ, Ceftazidime], the MIC was determined as 64 µg/mL.

The subject of another test is Klebsiella pneumoniae Strain ID 303375. The test is described as above. The test is classed as cell-based. Conditions: Strain ID 303375 KLEPNEP, Mueller-Hinton broth, read-out: minimum inhibition concentration (MIC).
Text: as §1, §2, §3, §4
For the compound `CC(C)(O/N=C(\C(=O)N[C@@H]1C(=O)N2C(C(=O)[O-])=C(C[n+]3ccccc3)CS[C@H]12)c1csc(N)n1)C(=O)O` [CAZ, Ceftazidime], the MIC was 64 µg/mL.
